Experimental data published in PMC4878759 (PLoS ONE, 2016).

Assays:
ANO2 = target: T1, ANO2 (Mus musculus, UniProt Q8CFW1); experiment: Apical membrane current in FRT-ANO2 cells; type: cell-based
T1 sequence (Q8CFW1 1-1002): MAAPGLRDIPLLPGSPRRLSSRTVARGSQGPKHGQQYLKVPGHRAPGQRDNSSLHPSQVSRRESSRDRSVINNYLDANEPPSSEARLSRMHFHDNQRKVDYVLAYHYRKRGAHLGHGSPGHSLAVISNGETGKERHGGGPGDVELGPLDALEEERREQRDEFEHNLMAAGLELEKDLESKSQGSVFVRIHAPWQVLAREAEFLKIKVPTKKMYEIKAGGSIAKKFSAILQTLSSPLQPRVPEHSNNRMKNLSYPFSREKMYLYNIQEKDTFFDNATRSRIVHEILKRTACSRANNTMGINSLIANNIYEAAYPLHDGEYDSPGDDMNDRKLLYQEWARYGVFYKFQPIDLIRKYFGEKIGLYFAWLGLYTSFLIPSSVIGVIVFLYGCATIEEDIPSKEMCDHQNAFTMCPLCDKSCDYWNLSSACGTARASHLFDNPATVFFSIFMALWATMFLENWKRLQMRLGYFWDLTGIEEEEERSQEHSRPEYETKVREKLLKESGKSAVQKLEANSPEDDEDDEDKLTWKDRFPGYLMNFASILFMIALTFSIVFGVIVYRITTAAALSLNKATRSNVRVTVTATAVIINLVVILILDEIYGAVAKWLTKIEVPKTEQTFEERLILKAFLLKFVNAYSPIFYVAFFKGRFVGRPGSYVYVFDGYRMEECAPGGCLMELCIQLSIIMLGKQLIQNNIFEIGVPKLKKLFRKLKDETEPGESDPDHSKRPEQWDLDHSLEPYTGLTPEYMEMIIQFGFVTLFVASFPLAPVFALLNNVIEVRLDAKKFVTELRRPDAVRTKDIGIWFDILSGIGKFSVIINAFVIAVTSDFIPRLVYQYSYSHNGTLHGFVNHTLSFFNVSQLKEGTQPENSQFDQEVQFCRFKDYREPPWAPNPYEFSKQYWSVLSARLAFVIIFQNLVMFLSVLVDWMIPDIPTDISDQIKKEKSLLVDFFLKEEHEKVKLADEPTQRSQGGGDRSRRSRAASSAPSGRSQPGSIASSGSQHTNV
Method: Snapwell inserts containing ANO1, ANO2 or CFTR expressing FRT cells, ENaC expressing T-84 cells or the human primary airway epithelial cells were mounted in Ussing chambers (Physiologic Instruments, San Diego, CA). To induce transcriptional ENaC induction, the polarized T84 cells were incubated with 2 mM sodium butyrate for 2 days. To increase the functional expression of ANO1, the human airway epithelial cells were treated with IL-4 (10 ng/mL) for 2 days. For T-84 and the human primary airway epithelial cells, the apical and basolateral bath were filled with HCO3^—buffered solution containing (in mM): 120 NaCl, 5 KCl, 1 MgCl2, 1 CaCl2, 10 D-glucose, 2.5 HEPES, and 25 NaHCO3 (pH 7.4). For FRT cells, the basolateral bath was filled with the HCO3^—buffered solution and the apical bath was filled with a half-Cl^- solution. In the half-Cl^- solution 65 mM NaCl in the HCO3^—buffered solution was replaced by Na-gluconate. […] ATP was applied to the apical bath solution to induce intracellular calcium increase. […] Apical membrane currents were measured with an EVC4000 Multi-Channel V/I Clamp (World Precision Instruments, Sarasota, FL) and PowerLab 4/35 (AD Instruments, Castle Hill, Australia). Data were analyzed using Labchart Pro 7 (AD Instruments). The sampling rate was 4 Hz.
ANO1 belongs to anoctamin gene family which contains ten members presenting eight-pass transmembrane segments with cytosolic N- and C-terminals. ANO2 shares a high level of amino acid homology to ANO1 (~60%) and, ANO1 and ANO2 are confirmed CaCCs. However, the roles of other family members (ANO3-ANO10) remain poorly understood and controversial. […] We investigated the effect of these inhibitors on ANO2-mediated apical membrane current in FRT-ANO2 cells.

mouse ANO2 = target: T2, mouse ANO2 (Mus musculus, UniProt Q8CFW1); experiment: YFP quenching assay in FRT cells expressing ANO2; type: cell-based; details: up to 10 μM, 100 μM ATP
T2 sequence (Q8CFW1 1-1002): T1 sequence (Q8CFW1 1-1002)

## COc1ccccc1C=NNC(=O)COc1ccc(Cl)cc1C [Ani9, 2-(4-chloro-2-methylphenoxy)-N-[(2-methoxyphenyl)methylideneamino]-acetamide]
ANO2; 1 μM pretreatment
  effect on ATP-induced ANO2 current: did not affect
ANO2; 10 μM pretreatment
  block of ANO2 current: 10 ± 1.6%
ANO2; higher concentrations (3 and 10 μM)
  inhibitory effect on ANO2: relatively small inhibitory effect
Mouse ANO2
  effect on ANO2 activity: did not significantly affect
